The results in this text go back to article PMC6310130 (Molecular and biochemical parasitology, 2014).

Where a SMILES comes first, the peptide text is derived from it. [ ]: non-standard residue; d: D form. The star is where a group is joined. Sta = CC(C)C[C@H](N)[C@@H](O)CC(=O)O; Isovaleryl = CC(C)CC(=O)*

For this assay, the target named is Plasmepsin V (Plasmodium falciparum, UniProt Q8I6Z5). In words: fluorogenic HRPII peptide cleavage assay, recombinant refolded enzyme, pH […]. Type of assay: biochemical.
Chain of Plasmepsin V (Q8I6Z5 81-521): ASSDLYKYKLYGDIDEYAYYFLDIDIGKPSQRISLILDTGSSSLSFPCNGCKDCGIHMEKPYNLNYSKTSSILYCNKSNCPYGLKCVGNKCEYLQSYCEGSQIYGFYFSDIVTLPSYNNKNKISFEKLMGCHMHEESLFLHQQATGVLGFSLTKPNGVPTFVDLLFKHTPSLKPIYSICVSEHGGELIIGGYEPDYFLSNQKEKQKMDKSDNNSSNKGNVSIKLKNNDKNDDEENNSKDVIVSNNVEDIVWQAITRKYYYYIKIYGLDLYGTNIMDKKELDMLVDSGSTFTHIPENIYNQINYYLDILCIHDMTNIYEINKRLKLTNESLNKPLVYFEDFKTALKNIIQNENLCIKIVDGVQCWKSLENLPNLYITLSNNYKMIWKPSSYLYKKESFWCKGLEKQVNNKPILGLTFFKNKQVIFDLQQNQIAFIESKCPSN
As a reminder, the IC50 is the concentration that gives 50% inhibition. `CC(C)CC(=O)N[C@H](C(=O)N[C@H](C(=O)N[C@@H](CC(C)C)[C@@H](O)CC(=O)N[C@@H](C)C(=O)N[C@@H](CC(C)C)[C@@H](O)CC(=O)O)C(C)C)C(C)C` [pepstatin A] (Isovaleryl-VV[Sta]A[Sta]-OH): the IC50 was determined as 22 µM.

For KNI-10743, the IC50 worked out at 44 µM. With KNI-10742 the figure was 108 µM.
